Residues, ends and D or L forms follow the SMILES beside them.
How the values were obtained:
[1] = Cell viability (CellTiter-Blue) of cells cultured with peptides / peptide nanoparticles; type: cell-based; conditions: mouse, murine breast cancer cells (4T1 and M6 cells); after at least about 24 hours or longer in culture; data not shown; read-out: viable cells
Protocol: The viability of cells incubated with various concentrations of peptide constructs and/or resulting peptide nanoparticles were evaluated.
To assess effects of the peptides and/or peptide nanostructures described herein on cell viability, cells were grown to confluence in gelatin 96-well plates, following which they were either left untreated or treated with blank or one or more embodiments of the peptide nanoparticles (˜25 mg/ml) for about 18 hours. CellTiter-Blue® reagent was then added to each well and, following 4 hour incubation at ˜37° C., the fluorescence signal was measured using a fluorescence multiwell plate reader (Victor3™, PerkinElmer, Mass., USA). All fluorescent intensity measurements were then normalized with respect to the untreated 4T1 mouse mammary carcinoma cells.

[2] = Stability of self-assembled peptide nanoparticles determined by DLS; type: physicochemical; conditions: for particle stability / time particles stable before disaggregation: DLS; for time particles stable before disaggregation: formed in cold deionized water; for particle stability compared to FF and YF constructs: function of residue at X4, data not shown
Protocol: (§1) The self-assembled peptide nanoparticles formed (e.g., from FF or YF peptides) in cold water (cold deionized water) as shown in Example 2 were stable for about 2 hours before they eventually disaggregated as determined by DLS. To increase the stability of FF and YF, a solvent injection protocol was used. That is, the peptide constructs were dissolved in an organic solvent (e.g., but not limited to, DMSO, acetone, ethanol, dioxane, acetonitrile, methanol, and THF) at ˜150 mg/ml and a fixed volume was then injected in cold saline solution (e.g., but not limited to, ˜0.9% NaCl) while stirring. Different concentrations and/or types of salts could be used to prepare the saline solution, depending on the solubility of the peptide constructs in the respective solution. In some embodiments, any buffer solution such as PBS, acetate, succinate and citrate buffer could be used instead. The resulting particles size varied with peptide concentration from about 5 mg/ml to about 50 mg/ml with low polydispersities (FIGS. 4A-4B). By addition of 0.9% NaCl in the cold solution, the stability of the particles was increased from about 2 h to about 24 h as determined by DLS. […] Thus, in one embodiment, the average size of the nanoparticles can be controlled by simply varying the temperature of the formulation buffere, e.g., at room temperature or under cold ˜2-4° C. conditions.
In some embodiments, the nanoparticles can be formed by a process, which comprises dissolving an isolated peptide described herein (e.g., example peptides shown in Tables 1-2) in organic solvents such as DMSO at high concentration (e.g., about 400 mg/mL) and injecting a fixed volume of the dissolved peptides in cold saline (e.g., ˜0.9% sodium chloride solution) while stirring. The cold precipitation method (e.g., using a cold saline medium) can more efficiently induce peptide self-assembly. In some embodiments, the cold precipitation method (e.g., using a cold saline medium) can improve particle stability, e.g., from about 2 hours (e.g., when particles were formed by simply mixing the isolated peptides at a specified temperature) to about 24 hours (where the particles were formed by cold saline precipitation method described herein).
To further improve stability of nanoparticles, stability of the resulting particles was investigated as a function of amino acid residue at the X4 position as indicated in Table 1 (entry 3-7) and X4 position as indicated in FIG. 1. […] For example, as shown in FIG. 4E and FIG. 5, the particles self-assembled from the YF peptides or Y peptides can be stable for at least about 120 hours or longer when formed in the formulation buffer (e.g., ˜0.9% NaCl), e.g., using the cold precipitation method described earlier. Without wishing to be bound by theory, this increase in stability is likely, in part, due to the tyrosine residue at position X4 that can be stabilized by the free amine at the N-terminus.

[3] = Encapsulation of hydrophobic (Nile Red) and hydrophilic (Calcein) dyes in peptide nanoparticles; type: physicochemical; conditions: YF ~25 mg/mL in cold saline
Protocol: Nile Red (NR) a hydrophobic dye and Calcein, hydrophilic dyes were used as model agents for hydrophobic and hydrophilic drugs or molecules, respectively. For example, YF was dissolved in DMSO to make a stock concentration of about 380 mg/mL. Stock solutions of Nile red and Calcein dyes were each prepared in DMSO at about 3 mg/ml and about 20 mg/mL, respectively. A mixture of YF (about 380 mg/ml) and at least one model agent (e.g., Nile red (0.28 mg/mL) and/or Calcein (1.8 mg/mL)) was added to a formulation buffer, e.g., cold saline (e.g., about 0.3 mL) and mixed, e.g., by manual pipetting. The final ratios of peptide to dyes were ˜25 mg/ml to ˜0.02 mg/ml (YF:NR) and ˜25 mg/mL to ˜0.124 mg/mL (YF:calcein). In some embodiments, about 20-30% of each dye was encapsulated within self-assembling YF nanoparticles.
The peptide nanostructures (e.g., peptide nanoparticles (NP)) were visualized by fluorescence microscopy using the hydrophobic dye, Nile Red, which has a strong emission at […] when present in a lipid-rich environment and excited at ˜485 nm, or the hydrophilic dyes, calcein (excitation/emission 495 nm/515 nm) and FITC-Dextran (excitation/emission 495 nm/521 nm). […] An aliquot of ˜10 μL solution was then added to a glass cover slip for visualization using fluorescence microscopy (TIRF DM1600).

[4] = Dynamic light scattering (DLS) size distribution of self-assembled peptide nanoparticles; type: physicochemical; conditions: for average hydrodynamic diameter / polydispersity index (PDI): DLS
Description: Self-assembling peptides (e.g., FF and YF peptides as shown in Table 1 and FIG. 1, each with a sequence of 10 amino acids in length) were each prepared by FMOC solid-phase peptide synthesis, for example, on Wang resin and cleaved from the resin with a solution mixture of trifluoroacetic acid/triisopropylsilane/water in a volume ratio of […]. The synthesized peptides were then purified by reversed phase HPLC. These peptide constructs were selected to represent bulky aliphatic and aromatic amino acid residues. […] The peptide concentration of the resulting mixture was about 2.5 mg/mL to about 100 mg/mL. The mixture was stirred at about 200 rpm to about 300 rpm for about 5 mins. The stirring speed can be varied to control size homogeneity. […] Accordingly, the size of the nanostructures can be, at least in part, controlled by the sequence of the amino acid construct.
as §1, with “That is, the peptide constructs were dissolved in an organic solvent (e.g., but not limited to, DMSO, acetone, ethanol, dioxane, acetonitrile, methanol, and THF) at ˜150 mg/ml and a fixed volume was then injected in cold saline solution (e.g., but not limited to, ˜0.9% NaCl) while stirring.” left out
Each peptide was dissolved in distilled deionized water at varying concentrations, which can, in part, control particle size. Mixtures of ˜80 mg/mL, ˜50 mg/mL, and ˜20 mg/mL peptide concentration were each stirred vigorously (e.g., using a magnetic stirrer) for about 10 mins at room temperature or at about 4° C. Nanoparticles were measured, e.g., by dynamic light scattering (DLS), to be in the range from about 50 nm to about 2 μm.
A zeta particle size analyzer (Malvern instruments, UK) operating with a HeNe laser, and a 173° back scattering detector was used to determine the size distribution of the nanoparticles. Samples were prepared at 80 mg/mL, 50 mg/mL, and 20 mg/mL in water and measured directly by dynamic light scattering measurement (n=3 per condition). Malvern instrument software or Microsoft Excel was used to analyze the acquired data.

[5] = Biodistribution of Alexa 750-loaded nanoparticles after tail vein injection; type: in vivo; conditions: mice
Protocol: FIG. 11 is a line graph showing biodistribution of YF nanoparticles in mice within 2 hours after injection. An imaging dye (e.g., Alexa 750 dye) was encapsulated in the YF nanoparticles and administered to the mice by tail vein injection.
Chemical and physical properties of the resulting nanoparticles, including size, surface charge, and surface chemistry, are important factors that determine their pharmacodynamics and biodistribution, which define their efficacy to deliver an agent and toxicity. Accordingly, it was next sought to determine tissue distribution of these resulting nanoparticles. Specifically, Alexa 750 dye was encapsulated in YF nanoparticles and administered to mice by tail vein injection. At intervals of 0.5, 1.0, and 2.0 hours, the animals were euthanized, then dissected. […] These nanoparticles can potentially eliminate the need for expensive spraying approach in aerosol delivery.

[6] = formed in cold saline, FIG. 4E, FIG. 5
[7] = formed in cold saline (~0.9% NaCl), solvent injection, FF ~50 mg/mL, YF ~5 mg/mL
[8] = formed in cold saline, FF ~50 mg/mL, YF ~5 mg/mL
[9] = self-assembled in cold deionized water

## CC(C)[C@H](N)C(=O)N1CCC[C@H]1C(=O)NCC(=O)N[C@@H](Cc1ccc(O)cc1)C(=O)NCC(=O)O [Y, VPGYG] (H-VPGYG-OH)
[1]
  viability: > 80%
[2]; [6]
  particle stability: ≥ 5 days

## CC(C)[C@H](N)C(=O)N1CCC[C@H]1C(=O)NCC(=O)N[C@@H](Cc1ccc(O)cc1)C(=O)NCC(=O)N[C@H](C(=O)N1CCC[C@H]1C(=O)NCC(=O)N[C@@H](Cc1ccccc1)C(=O)NCC(=O)O)C(C)C [YF, VPGYGVPGFG] (H-VPGYGVPGFG-OH)
[3]
  fraction of each dye encapsulated: 20-30%
[1]
  viability: > 80%
[4]; [7]
  average hydrodynamic diameter: 600 nm
[4]; [8]
  polydispersity index (PDI): 0.07
[4]; [9]
  average hydrodynamic diameter: ~900 nm
  polydispersity index (PDI): 0.33
[5]; 0.5-2.0 hours
  tissue distribution: lungs: greater deposition of the nanoparticles in the lungs
[5]; Alexa 750 encapsulated, FIG. 11
  time high fluorescence levels detected and maintained in vivo: at least 2 hours
[5]; fluorescence in brain
  tissue distribution: brain / blood-brain-barrier: cross the blood-brain-barrier and deposit in the brain
[2]
  time particles stable before disaggregation: about 2 hours
[2]; [6]
  particle stability: at least 5 days

## IPGYG
[4]; DMSO stock ~380 mg/mL injected in cold saline ~2-4 °C, final ~25 mg/mL, FIG. 14
  size distribution (monodispersity) relative to other substituted peptides: more monodisperse

## VPGFGVPGFG [FF]
[4]; [7]
  average hydrodynamic diameter: ~191 nm
[4]; [8]
  polydispersity index (PDI): 0.18
[4]; [9]
  polydispersity index (PDI): 0.27
[2]
  time particles stable before disaggregation: about 2 hours
[2]; formed in cold saline (~0.9% NaCl), cold precipitation method
  particle stability: ~1 days

## VPGFGVPGWG [FW]
[2]
  particle stability compared to FF and YF constructs: did not show a significant increase in stability

## VPGFGVPGYG [FY]
[2]
  particle stability compared to FF and YF constructs: did not show a significant increase in stability

## VPGWGVPGFG [WF]
[2]
  particle stability compared to FF and YF constructs: did not show a significant increase in stability

From patent US20150218252A1, “SELF-ASSEMBLING PEPTIDES, PEPTIDE NANOSTRUCTURES AND USES THEREOF” (President and Fellows of Harvard College, priority 2012, published 2015)
